Source: patent US20110093959A1, “CRYPTOTIS PARVA SCREENING MODEL FOR ANTIEMETIC POTENTIAL” (priority 2008, published 2011)
“And” between values parts separate entries of the source, which are not always exact repeats. Identical values can stand only once.

Key:
Type in all cases: in vivo, Cryptotis parva
[1] = tested on: Least Shrew; test: CIS dose-response emesis, abdominal contractions and feeding, 47-hour observation; conditions: for total frequency of emesis vs vehicle control: immediate and delayed phases
Description: During the dark night phase a red light bulb was used to illuminate the shrew cage.
To habituate the shrews to the test environment, each animal was randomly selected and transferred to a 14×17×12 cm clean opaque plastic cage and was offered ten mealworms 1 hr prior to experimentation. […] Immediately following injection, each shrew was returned to its cage and their behaviors were videotaped for the next 47 hr. Animals were allowed ad libitum access to food (mealworms) and water. Food supply was maintained by making sure that two meal worms were always available in the cage throughout the observation time. Water was available throughout the experiment via small plastic container (1 cm in diameter and 0.5 cm in height) glued to the floor of each cage. The mean frequencies (±SEM) of vomitings (wet, dry and total) and abdominal contractions per hour and the number of mealworms eaten per hour, were scored separately from videotape recordings for each individual shrew for the entire observation period by a trained observer blind to the experimental conditions.
(§1) When a significant dose and exposure interaction was found, then simple effects at a particular emesis phase was tested via a one-way ANOVA. Neurochemical data were initially analyzed by two-way analysis of variance (ANOVA) with drug dose (0 mg/kg and 10 mg/kg) and exposure time (2 hr and 33 hr) as factors. […] For each statistical test, a P value of<0.05 was necessary to achieve statistical significance.

[2] = tested on: 5-HT, 5-HIAA, dopamine and HVA tissue levels; test: Monoamine and metabolite tissue levels after CIS (HPLC-ECD); conditions: for increase in brainstem 5-HT tissue level vs vehicle: CIS 10 mg/kg i.p.; for frontal cortex 5-HIAA level: not significantly different from vehicle
Protocol: (§2) These parameters were used in our neurochemical studies. Prior to experimentation, shrews were habituated to the laboratory environment as described for the behavioral studies. […] Subgroups of each treatment were sacrificed by rapid decapitation at either 2 hr or 33 hr post-injection.
Brains were rapidly removed and dissected on an ice-cold petri dish, the frontal cortex and brainstem were immediately frozen on dry-ice and stored at […] until analysis. Likewise, each gut was rapidly removed and washed with ice-cold saline three times prior to sectioning into succeeding 2 cm portions starting from the end of the stomach (duodenal and jejunal sections, respectively), followed by rapid freezing as described above. Each frontal cortex, brainstem and intestinal sample was respectively homogenized (tissue tearer, setting 5 sec for 15 sec) in 1 ml, 2 ml, or 3 ml ice-cold 0.2 M perchloric acid respectively containing 0.3 M ethylenediamine-tetraacetic acid disodium (EDTA). A 0.1 ml portion of each homogenate was removed for protein analysis. The protein concentration was determined by the use of BCA protein assay kit (Pierce; Rockford, Ill.). Then, homogenates were centrifuged at 40,000 g for 30 min at 4° C. to precipitate protein. The supernatant was filtered through a 0.2 μm nylon filter in a microcentrifuge tube at 1,500 g for 10 min at 4° C. A 10 μl aliquot of each filtered supernatant was assayed for the presence of monoamines and their metabolites.
Monoamines and their metabolites were analyzed by high performance liquid chromatography with electrochemical detection (HPLC-ECD) based upon our established method (Darmani et al., 2003). Separation of 5-HT, dopamine and their corresponding metabolites (5-HIAA and HVA) from other electroactive compounds was achieved on a 10 cm×3.2 mm RP-C18 column (ODS 3 um packing; BAS Inc., W. Lafayette, Ind.) and a mobile phase containing 0.15 M chloroacetic acid, 0.12 M sodium hydroxide, 0.18 mM ethylenediamine-tetraacetic acid disodium (EDTA), 1.1 mM sodium octane sulfonic acid and 5% acetonitrile. The monoamines and their metabolites were separated and measured through the cited column via a Shumadzu L-ECD-6A detector, connected to a Shimadzu LC-10 AD pump and a C-R7Ae chromatopac integrator (Kyoto, Japan). The glassy carbon working electrode was set at a potential of 650 mV relative to an Ag/AgCl reference electrode. The detection limit for dopamine and 5-HT were 2 and 5 pg respectively, based on a signal to noise ratio of 3:1. Peak heights of unknowns were compared to the mean peak heights of a 200 pg standard solution (containing 5-HT, dopamine, 5-HIAA and HVA) which were run daily after every fifth tissue supernatant sample. The intestinal HVA concentrations could not be determined due to an unknown interfering peak in the gut tissue eluates.
as §1

[3] = tested on: substance P tissue levels; test: Substance P tissue levels after CIS (EIA)
Protocol: as §2
Preliminary sample preparation procedures were carried out to optimize detection conditions in accord with our published methods (Darmani et al., 2008). […] As proteases can be also deactivated by heat, at basic pH and in the presence of EDTA (Darmani et al., 2008), the entire intestine was immediately immersed in a 70° C. preheated for 5 min, 5 ml solution of normal saline containing […] EDTA at pH 8.0 in accordance to published methods (Darmani et al., 2008). Each sample was allowed to cool down naturally to room temperature and then each gut was thrice flushed and rinsed with 5 ml of the cited saline solution. Then, each gut was dissected and the duodenum and jejunum samples were placed separately in test tubes containing 1 ml assay buffer. The dissected frontal cortex and brainstem samples were placed in different test tubes containing 0.5 ml assay buffer. Each sample was homogenized using a tissue tearer (Biospec) set at level 5 for 15 sec. The homogenates were then centrifuged at 17,000×g for 15 min at 4° C. The supernatants were obtained and saved at […] until used for the EIA detection of SP. Samples were analyzed for SP using the “Correlate-EIA” kit from Assay Designs using a microplate reader.
as §1

[4] = CIS 10 mg/kg, i.p., post exposure
[5] = CIS 0 and 10 mg/kg, 2 and 33 hour
[6] = CIS 10 mg/kg, 2 hour (immediate phase)
[7] = CIS 10 mg/kg, 33 hour (delayed phase)

Which results are given for N.N.[Cl][Pt][Cl] [CIS, cis-platinum(II)diamine dichloride]?
peak immediate phase of emesis ([1]; CIS 5 mg/kg, i.p.): third hour; mealworms eaten vs control ([1]; CIS 5 mg/kg, first night): ate significantly more; time of maximal mean frequency of emesis, delayed phase [1, 4]: 33 h; time of maximal mean frequency of emesis, immediate phase [1, 4]: 2 h and 2 to 3 h; mealworms eaten vs control ([1]; CIS 10 mg/kg, day 1): ate significantly more; mealworms eaten vs control ([1]; CIS 10 mg/kg, day 2): ate significantly less; frequency of abdominal contractions vs vehicle ([1]; CIS 10 mg/kg, delayed phase): greater frequencies; frequency of dry emesis vs vehicle control ([1]; CIS 10 mg/kg, delayed phase): greater frequencies; total frequency of emesis vs vehicle control ([1]; CIS 10 mg/kg): significantly different; frequency of wet emesis vs control ([1]; CIS 10 mg/kg, immediate phase): significantly greater frequencies; time from which animals expired ([1]; CIS 20 mg/kg, i.p., post-CIS exposure): ≥ 30 h; mealworms eaten vs control ([1]; CIS 20 mg/kg, day 1): ate less; mealworms eaten vs control ([1]; CIS 20 mg/kg, day 2): ate significantly less; frequency of abdominal contractions vs vehicle ([1]; CIS 20 mg/kg, delayed phase): greater frequencies; mealworms eaten vs control ([1]; CIS 20 mg/kg, first night): ate significantly less; total frequency of emesis vs vehicle control ([1]; CIS 20 mg/kg): significantly different; frequency of dry vomiting vs vehicle control ([1]; CIS 20 mg/kg, immediate phase): significantly greater frequencies; frequency of wet emesis vs control ([1]; CIS 20 mg/kg, immediate phase): significantly greater frequencies; mean frequency of abdominal contractions vs vehicle ([1]; CIS 20 mg/kg, immediate phase): significantly greater; wet vomiting, dose effect ([1]; CIS 5-20 mg/kg, delayed phase): no significant dose effect; brainstem dopamine levels [2, 5]: no overall significant effect; duodenum dopamine levels [2, 5]: no overall significant effect; frontal cortex serotonin levels [2, 5]: no significant overall effect; duodenal tissue concentration of 5-HIAA ([2]; CIS 10 mg/kg): not significantly altered; increase in jejunal dopamine concentration ([2]; CIS 10 mg/kg at 33 hour vs 0 mg/kg control at 2 hour): 121%; increase in jejunal dopamine concentration ([2]; CIS 10 mg/kg at 33 hour vs 0 mg/kg control at 33 hour): 171%; frontal cortex HVA at 33 hour less than at 2 hour ([2]; CIS 10 mg/kg dose): 32.4%; jejunal 5-HT at 2 hour smaller than at 33 hours ([2]; CIS 10 mg/kg dose): 114.5%; brainstem 5-HT level at 33 hour greater than at 2 hour ([2]; CIS 10 mg/kg group): 33.9%; brainstem HVA at 33 hour greater than at 2 hour ([2]; CIS 10 mg/kg group): 37%; increase in brainstem 5-HT tissue level vs vehicle ([2]; 2 hour): 68.2%; increase in brainstem 5-HT tissue level vs vehicle ([2]; 33 hour): 25%; duodenal 5-HT concentrations ([2]; CIS 10 mg/kg, 2 and 33 hour): not significantly altered; frontal cortex dopamine tissue level vs control ([2]; CIS 10 mg/kg, 2 hour): significant increase; increase in brainstem 5-HIAA level vs vehicle ([2]; CIS 10 mg/kg, 2 hour): 43.8%; increase in brainstem HVA levels vs control ([2]; CIS 10 mg/kg, 2 hour): 65.5%; increase in jejunal 5-HIAA concentration vs control ([2]; CIS 10 mg/kg, 2 hour): 32.4%; reduction of jejunal 5-HT tissue concentration vs control ([2]; CIS 10 mg/kg, 2 hour): 49.1%; frontal cortex 5-HIAA level ([2]; CIS 10 mg/kg, 2 hour): 1.1±0.07; decrease in frontal cortex HVA concentration vs vehicle ([2]; CIS 10 mg/kg, 33 hour): 35.9%; increase in brainstem 5-HIAA level vs vehicle ([2]; CIS 10 mg/kg, 33 hour): 26.7%; increase of jejunal 5-HT tissue concentration vs control ([2]; CIS 10 mg/kg, 33 hour): ~50% and 41.8%; frontal cortex 5-HIAA level ([2]; CIS 10 mg/kg, 33 hour): 0.91±0.11; increase in brainstem HVA levels vs control ([2]; CIS 10 mg/kg, 33 hours): 27.7%; duodenal 5-HT at 33 hours greater than at 2 hour ([2]; CIS-treated animals): 48.5%; brainstem 5-HIAA at 33 hour greater than at 2 hour ([2]; CIS-treated group): 49.2%; duodenal SP tissue levels ([3]; CIS 10 mg/kg, 2 and 33 hour): failed to exhibit a significant effect; frontal cortex SP tissue levels vs vehicle ([3]; CIS 10 mg/kg, 2 hour): no significant difference; increase in brainstem SP levels vs vehicle [3, 6]: 1396%; increase in jejunal SP levels vs vehicle [3, 6]: 333%; decrease in frontal cortex SP levels vs vehicle ([3]; CIS 10 mg/kg, 33 hour): 39.2%; increase in brainstem SP levels vs vehicle [3, 7]: 956%; increase in jejunal SP levels vs vehicle [3, 7]: 226.5%; brainstem mean SP level lower at 33 hour than at 2 hour ([3]; CIS groups): 100%
